Values of other authors in PubChem BioAssay AID1259410 (Chemical Carcinogenesis Research Information System (CCRIS), 2018).

Tested on: rodent tumor promotion studies, tumor incidence
Test: CCRIS tumor promotion studies
Conditions: Route [Promoter]: DERMAL, Species: MOUSE

Measured: outcome

CCCCCCCCCCCCCC(=O)O[C@@H]1[C@@H](C)[C@@]2(O)[C@@H](C=C(CO)C[C@]3(O)C(=O)C(C)=C[C@@H]23)[C@@H]2C(C)(C)[C@]12OC(C)=O
skin: tumors: Carcinogen: 1,3-DIMETHYLBENZO[B]FLUORANTHRENE, 95741-51-8, Doses [Carcinogen]: 40, 100 NMOL TOTAL DOSES GIVEN IN 10 SUBDOSES 1/2 D IN 0.1 ML ACETONE, Doses [Promoter]: 2.5 UG IN 0.1 ML ACETONE 3/WK FOR 30 WK BEGINNING 10 D POST CARCINOGEN TREATMENT (STUDY DURATION: 34 WK), Route [Carcinogen]: DERMAL, Strain/Sex: CD-1/FEMALE | Carcinogen: 1-METHYL-4H-CYCLOPENTA[DEF]PHENANTHRENE, 98090-89-2, Doses [Carcinogen]: 100 UG IN ACETONE (100 µL) 1/2 D FOR A TOTAL OF 10 SUBDOSES (TOTAL DOSE 1 MG), Doses [Promoter]: 0.0025% IN 100 µL ACETONE 3/WK FOR 20 WK BEGINNING POST CARCINOGEN TREATMENT (STUDY DURATION: 23 WK), Route [Carcinogen]: DERMAL, Strain/Sex: CD-1/FEMALE | Carcinogen: 1-METHYLBENZO[B]FLUORANTHRENE, 95741-48-3, Doses [Carcinogen]: 100 NMOL TOTAL DOSE GIVEN IN 10 SUBDOSES 1/2 D IN 0.1 ML ACETONE, Doses [Promoter]: 2.5 UG IN 0.1 ML ACETONE 3/WK FOR 30 WK BEGINNING 10 D POST CARCINOGEN TREATMENT (STUDY DURATION: 34 WK), Route [Carcinogen]: DERMAL, Strain/Sex: CD-1/FEMALE | Carcinogen: 3-METHYLBENZO[B]FLUORANTHRENE, 95741-50-7, Doses [Carcinogen]: 40, 100 NMOL TOTAL DOSE GIVEN IN 10 SUBDOSES 1/2 D IN 0.1 ML ACETONE, Doses [Promoter]: 2.5 UG IN 0.1 ML ACETONE 3/WK FOR 30 WK BEGINNING 10 D POST CARCINOGEN TREATMENT (STUDY DURATION: 34 WK), Route [Carcinogen]: DERMAL, Strain/Sex: CD-1/FEMALE | Carcinogen: 4-CYCLOPENTA[DEF]CHRYSEN-4-ONE, 86853-91-0, Doses [Carcinogen]: 100 UG IN ACETONE (100 µL) 1/2 D FOR A TOTAL OF 10 SUBDOSES (TOTAL DOSE 1 MG), Doses [Promoter]: 0.0025% IN 100 µL ACETONE 3/WK FOR 20 WK BEGINNING POST CARCINOGEN TREATMENT (STUDY DURATION: 23 WK), Route [Carcinogen]: DERMAL, Strain/Sex: CD-1/FEMALE | Carcinogen: 4H-CYCLOPENTA[DEF]CHRYSENE, 202-98-2, Doses [Carcinogen]: 100 UG IN ACETONE (100 µL) 1/2 D FOR A TOTAL OF 10 SUBDOSES (TOTAL DOSE 1 MG), Doses [Promoter]: 0.0025% IN 100 µL ACETONE 3/WK FOR 20 WK BEGINNING POST CARCINOGEN TREATMENT (STUDY DURATION: 23 WK), Route [Carcinogen]: DERMAL, Strain/Sex: CD-1/FEMALE | Carcinogen: 5-METHYLCHRYSENE, 3697-24-3, Doses [Carcinogen]: 33, 100 NMOL IN 0.1 ML ACETONE ONCE, Doses [Promoter]: 2.5 UG IN 0.1 ML ACETONE 3/WK FOR 25 WK BEGINNING 10 D POST INITIATION (STUDY DURATION: 27 WK), Route [Carcinogen]: DERMAL, Strain/Sex: CD-1/FEMALE
skin:tumor: Carcinogen: 3'-AZIDO-2',3'-DIDEOXYTHYMIDINE, 30516-87-1, Doses [Carcinogen]: 0, 25 MG IN 0.5 ML DISTILLED WATER ADMINISTERED TO PREGNANT RATS ON DAYS 12-18 OF GESTATION, Doses [Promoter]: 2 UG IN 0.1 ML DISTILLED WATER 2/WK FOR 17 WK THEN 5 UG IN 0.1 ML DISTILLED WATER 2/WK FROM WK 18 TO 35 ADMINISTERED TO, Route [Carcinogen]: GAVAGE, Strain/Sex: CD-1/MALE,FEMALE
skin: tumor: Carcinogen: 1,2-DIHYDRO-1,2-DIHYDROXY-5,6-DIMETHYLCHRYSENE, 139562-14-4, Doses [Carcinogen]: 33, 100 NMOL IN 0.1 ML ACETONE ONCE, Doses [Promoter]: 0, 2.5 UG IN 0.1 ML ACETONE 3/WK FOR 20 WK BEGINNING 10 D POST CARCINOGEN DOSE (STUDY DURATION: 20 WK), Route [Carcinogen]: DERMAL, Strain/Sex: CD-1/FEMALE | Carcinogen: 2-AMINO-3-METHYL-9H-PYRIDO[2,3-B]INDOLE, 68006-83-7, Doses [Carcinogen]: 0, 4 MG/0.1 ML DMSO 2/WK FOR 5 WK, Doses [Promoter]: 2.5 UG IN 0.1 ML ACETONE 2/WK FOR 47 WK BEGINNING 1 WK POST CARCINOGEN TREATMENT (STUDY DURATION: 48 WK), Route [Carcinogen]: DERMAL, Strain/Sex: CD-1/FEMALE | Carcinogen: 2-AMINO-5-PHENYLPYRIDINE, 33421-40-8, Doses [Carcinogen]: 0, 10 MG/0.1 ML DMSO 2/WK FOR 5 WK, Doses [Promoter]: 2.5 UG IN 0.1 ML ACETONE 2/WK FOR 47 WK BEGINNING 1 WK POST CARCINOGEN TREATMENT (STUDY DURATION: 48 WK), Route [Carcinogen]: DERMAL, Strain/Sex: CD-1/FEMALE | Carcinogen: 2-METHYLBENZO[K]FLUORANTHENE, 95741-57-4, Doses [Carcinogen]: 4 UMOL (TOTAL DOSE) ADMINISTERED IN 10 SUBDOSES 1/2 D, Doses [Promoter]: 2.5 UG IN 0.1 ML ACETONE 3/WK FOR 30 WK BEGINNING 10 D POST CARCINOGEN TREATMENT (STUDY DURATION: 33 WK), Route [Carcinogen]: DERMAL, Strain/Sex: CRL:CD-1/FEMALE | Carcinogen: 3-AMINO-1,4-DIMETHYL-5H-PYRIDO[4,3-B]INDOLE, 62450-06-0, Doses [Carcinogen]: 0, 2 MG/0.1 ML DMSO 2/WK FOR 5 WK, Doses [Promoter]: 2.5 UG IN 0.1 ML ACETONE 2/WK FOR 47 WK BEGINNING 1 WK POST CARCINOGEN TREATMENT (STUDY DURATION: 48 WK), Route [Carcinogen]: DERMAL, Strain/Sex: CD-1/FEMALE | Carcinogen: 3-AMINO-1-METHYL-5H-PYRIDO[4,3-B]INDOLE, 62450-07-1, Doses [Carcinogen]: 0, 2 MG/0.1 ML DMSO 2/WK FOR 5 WK, Doses [Promoter]: 2.5 UG IN 0.1 ML ACETONE 2/WK FOR 47 WK BEGINNING 1 WK POST CARCINOGEN TREATMENT (STUDY DURATION: 48 WK), Route [Carcinogen]: DERMAL, Strain/Sex: CD-1/FEMALE | Carcinogen: 3-METHYLCHOLANTHRENE, 56-49-5, Doses [Promoter]: 0, 1.8 NMOL IN 0.1 ML ACETONE 2/WK FOR 4 WK BEGINNING 6 WK POST CARCINOGEN DOSE (STUDY DURATION: 2 YR), Route [Carcinogen]: SUBCUTANEOUS, Strain/Sex: S/RVCRI/FEMALE | Carcinogen: 4-FLUOROBENZO[B]FLUORANTHENE, 146746-67-0, Doses [Carcinogen]: 10, 40, 120, 400 NMOL (TOTAL DOSE) APPLIED 1/2 D FOR 10 SUBDOSES, Doses [Carcinogen]: 10, 40, 120, 400 NMOL (TOTAL DOSE) APPLIED 1/2 D FOR 10 SUBDOSES, Doses [Promoter]: 0, 2.5 UG IN 100 µL ACETONE 3/WK FOR 20 WK BEGINNING 10 D POST CARCINOGEN TREATMENT (STUDY DURATION: 22 WK), Route [Carcinogen]: DERMAL, Strain/Sex: CRL:CD-1/FEMALE | Carcinogen: 4-FLUOROBENZO[J]FLUORANTHENE, 129286-36-8, Doses [Carcinogen]: 0.3, 1, 2 UMOL (TOTAL DOSE) ADMINISTERED IN SUBDOSES 1/2 D, Doses [Carcinogen]: 0.3, 1, 2 UMOL (TOTAL DOSE) ADMINISTERED IN SUBDOSES 1/2 D, Doses [Promoter]: 2.5 UG IN 100 µL ACETONE 3/WK FOR 20 WK BEGINNING 10 D POST LAST CARCINOGEN DOSE (STUDY DURATION: 27 WK), Route [Carcinogen]: DERMAL, Strain/Sex: CD-1/FEMALE | Carcinogen: 5,6-DIMETHYLCHRYSENE, 3697-27-6, Doses [Carcinogen]: 100 NMOL IN 0.1 ML ACETONE ONCE, Doses [Promoter]: 0, 2.5 UG IN 0.1 ML ACETONE 3/WK FOR 20 WK BEGINNING 10 D POST CARCINOGEN DOSE (STUDY DURATION: 20 WK), Route [Carcinogen]: DERMAL, Strain/Sex: CD-1/FEMALE | Carcinogen: 5-FLUOROBENZO[B]FLUORANTHENE, 146746-68-1, Doses [Carcinogen]: 10, 40, 120, 400 NMOL (TOTAL DOSE) APPLIED 1/2 D FOR 10 SUBDOSES, Doses [Carcinogen]: 10, 40, 120, 400 NMOL (TOTAL DOSE) APPLIED 1/2 D FOR 10 SUBDOSES, Doses [Promoter]: 0, 2.5 UG IN 100 µL ACETONE 3/WK FOR 20 WK BEGINNING 10 D POST CARCINOGEN TREATMENT (STUDY DURATION: 22 WK), Route [Carcinogen]: DERMAL, Strain/Sex: CRL:CD-1/FEMALE | Carcinogen: 6-FLUOROBENZO[B]FLUORANTHENE, 125811-13-4, Doses [Carcinogen]: 10, 40, 120, 400 NMOL (TOTAL DOSE) APPLIED 1/2 D FOR 10 SUBDOSES, Doses [Carcinogen]: 10, 40, 120, 400 NMOL (TOTAL DOSE) APPLIED 1/2 D FOR 10 SUBDOSES, Doses [Promoter]: 0, 2.5 UG IN 100 µL ACETONE 3/WK FOR 20 WK BEGINNING 10 D POST CARCINOGEN TREATMENT (STUDY DURATION: 22 WK), Route [Carcinogen]: DERMAL, Strain/Sex: CRL:CD-1/FEMALE
skin: papilloma: Carcinogen: 2'-(4-NITROPHENOXY)OXIRANE, 59485-08-4, Doses [Carcinogen]: 5 UMOL IN 0.2 ML 15% DMSO IN ACETONE ONCE, Doses [Promoter]: 0, 15 NMOL IN 0.1 ML ACETONE ONCE 18-24 HR PRIOR TO CARCINOGEN DOSE THEN BEGINNING 1 WK LATER 2/WK FOR DURATION OF STUDY, Route [Carcinogen]: DERMAL, Strain/Sex: ICR/FEMALE | Carcinogen: 4-NITROPHENYL VINYL ETHER, 940-14-7, Doses [Carcinogen]: 5 UMOL IN 0.2 ML 15% DMSO IN ACETONE ONCE, Doses [Promoter]: 0, 15 NMOL IN 0.1 ML ACETONE ONCE 18-24 HR PRIOR TO CARCINOGEN DOSE THEN BEGINNING 1 WK LATER 2/WK FOR DURATION OF STUDY, Route [Carcinogen]: DERMAL, Strain/Sex: ICR/FEMALE | Carcinogen: 5-CHLOROMETHYLFURFURAL, 1623-88-7, Doses [Carcinogen]: 0, 10, 25 UMOL IN O.2 ML ACETONE:DMSO ONCE, Doses [Carcinogen]: 0, 10, 25 UMOL IN O.2 ML ACETONE:DMSO ONCE, Doses [Promoter]: 0, 2.5 UG 2/WK FOR 24 WK BEGINNING 1 WK POST CARCINOGEN DOSE (STUDY DURATION: 24 WK), Route [Carcinogen]: DERMAL, Strain/Sex: CD-1/FEMALE | Carcinogen: 5-HYDROXYMETHYLFURFURAL, 67-47-0, Doses [Carcinogen]: 0, 10, 25 UMOL IN 0.2 ML ACETONE:DMSO ONCE, Doses [Carcinogen]: 0, 10, 25 UMOL IN 0.2 ML ACETONE:DMSO ONCE, Doses [Promoter]: 0, 2.5 UG 2/WK FOR 24 WK BEGINNING 1 WK POST CARCINOGEN DOSE (STUDY DURATION: 24 WK), Route [Carcinogen]: DERMAL, Strain/Sex: CD-1/FEMALE | Carcinogen: 5-SULFOOXYMETHYLFURFURAL, 159091-35-7, Doses [Carcinogen]: 0, 25 UMOL IN 0.2 ML ACETONE:DMSO ONCE, Doses [Promoter]: 0, 2.5 UG 2/WK FOR 24 WK BEGINNING 1 WK POST CARCINOGEN DOSE (STUDY DURATION: 24 WK), Route [Carcinogen]: DERMAL, Strain/Sex: CD-1/FEMALE
